Holding throughout (assay type): cell-based
The subject of assay [1] is eEF1A1 (eukaryotic elongation factor 1 alpha 1). The assay is described as follows: Western blot analysis of eEF1A1 level, MCF7. The method, then: (§1) The breast cancer cell line (MCF7) of Section 1-1, taken 4 days after irradiation exposure was applied to the cells, was washed with PBS, and the cell sample was subjected to protein extraction using a cell lysis buffer (50 mM Tri-HCl, 1% NP-40, 0.25% sodium deoxycholate, 150 mM NaCl, 1 mM PMSF, 50 mM NaF, 0.2 mM Na3VO4, 10 g/mL aprotinin, and 2 g/mL leupeptin). The extracted protein was centrifuged at 11,000 rpm for 10 min. The supernatant was collected and subjected to quantitative analysis using Bradford protein assay (Bradford, M., Anal. Biochem. 72:248-254 (1976)). 20 μg of the protein was added to 2× SDS loading buffer (60 mm Tris-Cl (pH 6.8), 25% glycerol, 2% SDS, 14.4 mM mercaptoethanol, and 0.1% bromophenol blue), and the mixture was heated at 95 for 5 min and subjected to electrophoresis on 8% SDS polyacrylamide gel at 80V for 2 hours. After the electrophoresis was complete, the separated protein was transferred to a nitrocellulose membrane (Whatman). The protein-transferred membrane was placed in a PBS solution containing 5% nonfat dry milk, and allowed to stand at room temperature for 1 hour to be blocked. Primary antibodies diluted to 1:1000 were added thereto, followed by reaction at 4 for 16 hours. The primary antibodies were polyclonal anti-eEF1A1 antibodies (Abcam, Mass., USA, Cat # ab37969 ) and anti-CD antibodies (Santa Cruz Biotechnology, Calif., USA, Cat # SC-6494 ). The secondary antibodies were horseradish peroxidase-conjugated anti-rabbit antibodies (GE healthcare, Backinghanshire, UK, Cat # NA934V). In addition, an enhanced chemiluminescence (ECL) reagent (Amersham Biosciences, Piscataway, N.J.) was used for confirmation of the reaction. Actin was used as an internal positive control, and primary antibodies were anti-actin antibodies (Santa Cruz Biotechnology, Calif., USA, Cat # SC-1616).
(§2) The signal intensity was scanned with HP Scanjet 2400 (Hewlett-Packard Company, Palo Alto, Calif., USA) and analyzed with ImageJ Program (http://rsb.info.nih.gov/ij/).
(§3) The procedure was performed in the same manner as in Section 1-6 of Example 1, except that the cell line with treatment of doxorubicin at a high dose and the cell line with treatment of doxorubicin at a low dose, each of which prepared in Section 4-1, were used. In order to confirm the occurrence of apoptosis, a level of poly(ADP-ribose) polymerase (PARP) serving as an apoptosis biomarker was detected according to Western blot analysis as in Section 1-6 of Example 1, except that polyclonal anti-PARP antibodies (Cell Signaling Technology, Mass., USA, Cat #9541) were used as primary antibodies.
(§4) The procedure was performed in the same manner as in Section 1-6 of Example 1, except that the cell line prepared in Section 6-1 was used.
(§5) P-pRb and CDK2 were used as markers of G1/S phase transition arrest. Protein levels were confirmed by Western blot analysis in the same manner as in Section 1-6 of Example 1, except that primary antibodies directed against P-pRb were Phosphoro-pRb antibodies (Cell Signaling Technology, Danvers, Mass., Cat #9308), and primary antibodies directed against CDK2 were anti-CDK2 antibodies (Santa Cruze Biotechnology, Calif., USA, Cat #SC-163).
(§6) The procedure was performed in the same manner as in Section 1-6 of Example 1, except that the cell line prepared in Section 8-1 was used. In order to detect changes in levels of LC3-II which is an autophagy biomarker, anti-LC3-II antibodies (Sigma, Mo., USA, Cat #L8919) were used as primary antibodies directed against LC3-II.
For orientation: In western blotting, separated proteins are transferred to a membrane and probed.

Assay [2] deals with P-pRb (phosphorylated retinoblastoma). The assay is described as follows: Western blot analysis of P-pRb (G1/S arrest marker), MCF7. As to conditions: MCF7, double thymidine treatment (15 h, 0.5 mg/mL, 8 h interval), arrested. The protocol:
as §1, with “The primary antibodies were polyclonal anti-eEF1A1 antibodies (Abcam, Mass., USA, Cat # ab37969 ) and anti-CD antibodies (Santa Cruz Biotechnology, Calif., USA, Cat # SC-6494 ). The secondary antibodies were horseradish peroxidase-conjugated anti-rabbit antibodies (GE healthcare, Backinghanshire, UK, Cat # NA934V). In addition, an enhanced chemiluminescence (ECL) reagent (Amersham Biosciences, Piscataway, N.J.) was used for confirmation of the reaction. Actin was used as an internal positive control, and primary antibodies were anti-actin antibodies (Santa Cruz Biotechnology, Calif., USA, Cat # SC-1616).” left out

The subject of assay [3] is CDK2. The assay is described as follows: Western blot analysis of CDK2 (G1/S arrest marker), MCF7. As to conditions: MCF7, double thymidine treatment (15 h, 0.5 mg/mL, 8 h interval), arrested. The protocol:
as §1, with “The primary antibodies were polyclonal anti-eEF1A1 antibodies (Abcam, Mass., USA, Cat # ab37969 ) and anti-CD antibodies (Santa Cruz Biotechnology, Calif., USA, Cat # SC-6494 ). The secondary antibodies were horseradish peroxidase-conjugated anti-rabbit antibodies (GE healthcare, Backinghanshire, UK, Cat # NA934V). In addition, an enhanced chemiluminescence (ECL) reagent (Amersham Biosciences, Piscataway, N.J.) was used for confirmation of the reaction. Actin was used as an internal positive control, and primary antibodies were anti-actin antibodies (Santa Cruz Biotechnology, Calif., USA, Cat # SC-1616).” left out

The test system of assay [4] is CD (cathepsin D). As to the kind of experiment: Western blot analysis of CD level, MCF7. The method, then: as §1, §2, §3, §4, §5, §6
Assay [5] relates to breast cancer cell line (MCF7). The assay is described as follows: Senescence-associated β-galactosidase activity staining, MCF7.
Description: The cells were washed twice with PBS and fixed with 3% formaldehyde at room temperature for 3 to 5 min. The fixed cells were washed once again with PBS, and 5 mL of a β-galactosidase activity staining solution (1 mg/mL X-Gal, 40 mM citric acid/sodium phosphate (pH 6.0), 5 mM potassium ferrocyanide, 5 mM potassium ferricyanide, 150 mM sodium chloride, and 2 mM magnesium chloride) was added thereto, followed by reaction in an incubator at 37 for 12 to 16 hours. During the reaction, the cells were cultured under light-shielding conditions by wrapping of the culture dish in silver foil.
The test system of assay [6] is eEF1A1 (eukaryotic elongation factor 1 alpha 1). The assay is described as follows: Western blot analysis of eEF1A1 level, H460. The protocol:
(§7) The breast cancer cell line (MCF7) of Section 1-1, taken 4 days after irradiation exposure was applied to the cells, was washed with PBS, and the cell sample was subjected to protein extraction using a cell lysis buffer (50 mM Tri-HCl, 1% NP-40, 0.25% sodium deoxycholate, 150 mM NaCl, 1 mM PMSF, 50 mM NaF, 0.2 mM Na3VO4, 10 g/mL aprotinin, and 2 g/mL leupeptin). The extracted protein was centrifuged at 11,000 rpm for 10 min. The supernatant was collected and subjected to quantitative analysis using Bradford protein assay (Bradford, M., Anal. Biochem. 72:248-254 (1976)). […]
as §3, with “antibodies. […]” for “antibodies.”

Assay [7] has as its system poly(ADP-ribose) polymerase (PARP). As to the kind of experiment: Western blot analysis of PARP cleavage (apoptosis biomarker), MCF7. The following applies: MCF7, high dose (10 μg/mL). The protocol: as §7, §3
The subject of assay [8] is breast cancer cell line (MCF7). As to the kind of experiment: Microscopic examination of cell morphology, MCF7. The following applies: for cell morphology: time course 0-96 hours. The method, then:
In order to confirm premature senescence, characteristic morphological changes of cells in the control group and the breast cancer cell line 4 days after irradiation exposure thereof, each of which prepared in Section 1-1, were examined under a microscope (ECLIPSE TE300, Nikon).
In order to ascertain doxorubicin-induced senescence or apoptosis of a tumor cell line, the procedure was carried out in the same manner as in Section 1-2 of Example 1, except that the experiment was conducted according to a time-course schedule (0, 16, 24, 48, and 96 hours) using the cell line of Section 4-1.
Morphological changes of cells in the control group and the tamoxifen-treated group of Section 8-1 were examined under a microscope (ECLIPSE TE300, Nikon).

Assay [9] deals with lung cancer cell line H460. The assay is described as follows: Microscopic examination of cell morphology, H460. The following applies: 96 hours. The protocol: In order to ascertain doxorubicin-induced senescence or apoptosis of a tumor cell line, the procedure was carried out in the same manner as in Section 1-2 of Example 1, except that the experiment was conducted 96 hours after treatment of doxorubicin on the cell line of Section 5-1.

Assay [10] concerns CD (cathepsin D). The assay is described as follows: Western blot analysis of CD level, H460. The method, then: as §7
as §3, with “antibodies. […]” for “antibodies.”

Assay [11] relates to LC3-II. The assay is described as follows: Western blot analysis of LC3-II (autophagy biomarker), MCF7. As to conditions: MCF7, tamoxifen 10 μmol/L for 2 days. The method, then:
as §1, with “The primary antibodies were polyclonal anti-eEF1A1 antibodies (Abcam, Mass., USA, Cat # ab37969 ) and anti-CD antibodies (Santa Cruz Biotechnology, Calif., USA, Cat # SC-6494 ). The secondary antibodies were horseradish peroxidase-conjugated anti-rabbit antibodies (GE healthcare, Backinghanshire, UK, Cat # NA934V). In addition, an enhanced chemiluminescence (ECL) reagent (Amersham Biosciences, Piscataway, N.J.) was used for confirmation of the reaction. Actin was used as an internal positive control, and primary antibodies were anti-actin antibodies (Santa Cruz Biotechnology, Calif., USA, Cat # SC-1616).” left out

Where [12] appears, read: MCF7, double thymidine block, arrested at G1/S.
[13] abbreviates: MCF7, released from DTB, additional 48 h.
Setting [14] is: MCF7, camptothecin 40 nM, etoposide 30 μM.
[15] abbreviates: MCF7, camptothecin 40 nM, etoposide 30 μM, control group (Con)=1.
Where [16] appears, read: MCF7, Day 4, Day 0=1, ImageJ scanning, dose not restated (senescence, low dose implied).
[17] abbreviates: MCF7, high dose (10 μg/mL), apoptotic conditions.
Where [18] appears, read: MCF7, low-dose doxorubicin (50 ng/mL).
[19] abbreviates: H460, high-dose doxorubicin (10 μg/mL), apoptosis.
[20] abbreviates: H460, low-dose doxorubicin (50 ng/mL).
Setting [21] is: MCF7, tamoxifen 10 μmol/L for 2 days, autophagy.

These results are taken from US20100304409A1, “METHOD FOR DETECTING PREMATURE SENESCENCE IN TUMOR CELLS AND A KIT FOR DETECTING PREMATURE SENESCENCE IN TUMOR CELLS” (KOREA INSTITUTE OF RADIOLOGICAL & MEDICAL SCIENCES, priority 2009, published 2010).

On to `Cc1cn([C@H]2C[C@H](O)[C@@H](CO)O2)c(=O)[nH]c1=O` [DTB, thymidine], for which the “protein level of eEF1A1 (Western blot)” value in assay [1] (setting [12]) is given as “No significant alteration”. Moreover, the “eEF1A1 level (Western blot)” value in assay [1] (setting [13]) is “did not exhibit any alteration”. Besides, in assay [2], the “phosphorylated pRb level (Western blot)” value was “decrease”. Further, the “CDK2 level (Western blot)” value in assay [3] is recorded as “accumulation”. Also, in assay [4] (setting [12]), the “protein level of CD (Western blot)” value is recorded as “No significant alteration”. The “CD level (Western blot)” value in assay [4] (setting [13]) is “did not exhibit any alteration”.

On to `CC[C@@]1(O)C(=O)OCc2c1cc1n(c2=O)Cc2cc3ccccc3nc2-1` [camptothecin], for which the “level of eEF1A1 (Western blot)” value in assay [1] (setting [14]) is “decreases”. In addition, in assay [1] (setting [15]), the “eEF1A1 band signal intensity, relative” value is reported as 0.73. Further, the “senescence-associated β-galactosidase activity staining” value in assay [5] (MCF7, camptothecin 40 nM, etoposide 30 μM, versus control group) is recorded as “exhibited characteristics of premature senescence”. For the same compound, the “level of CD (Western blot)” value in assay [4] (setting [14]) is “increases”. Moreover, the “CD band signal intensity, relative” value in assay [4] (setting [15]) was found to be 7.46.

Take `COc1cccc2c1C(=O)c1c(O)c3c(c(O)c1C2=O)C[C@@](O)(C(=O)CO)C[C@@H]3O[C@H]1C[C@H](N)[C@H](O)[C@H](C)O1` [doxorubicin]: in assay [1] (setting [16]), the “eEF1A1 band signal intensity, relative” value stood at 0.53. Besides, the “protein level of eEF1A1 (Western blot)” value in [1] (setting [17]) is given as “remained unaltered”. Moreover, the “level of eEF1A1 (Western blot)” value in [1] (setting [18]) is on record as “decreases”; in assay [6] (setting [19]), “no changes”; in assay [6] (setting [20]), “decreases”. In addition, in [7], the “PARP cleavage (apoptotic marker)” value is “induced”. Besides, the SA-β-gal staining entry in assay [5] (MCF7, 4 days after treatment of doxorubicin (50 ng/mL)) is “positive SA-β-gal staining”. In addition, the cell morphology entry in [8] (MCF7, high dose (10 μg/mL)) is recorded as “apoptosis-specific morphological changes”; in assay [8] (MCF7, low dose (50 ng/mL)) it was “senescence-specific morphological changes”; in [9] (H460, high dose (10 μg/mL)), “apoptosis-specific morphological changes”; in [9] (H460, low dose (50 ng/mL)), “senescence-specific morphological changes”. Moreover, in assay [4] (setting [16]), the “CD band signal intensity, relative” value is given as 2.45. Besides, the “protein level of CD (Western blot)” value in assay [4] (setting [17]) is “gradually decreased”. The figures for the “level of CD (Western blot)” value in [4] (setting [18]), in assay [10] (setting [19]) and in assay [10] (setting [20]) were “increases”, “no changes” and “increases”, respectively.

With `COc1cc([C@@H]2c3cc4c(cc3[C@@H](O[C@@H]3O[C@@H]5CO[C@@H](C)O[C@H]5[C@H](O)[C@H]3O)[C@H]3COC(=O)[C@H]23)OCO4)cc(OC)c1O` [etoposide], the “level of eEF1A1 (Western blot)” value in [1] (setting [14]) is “decreases”. For the same compound, the “level of CD (Western blot)” value in [4] (setting [14]) is reported as “increases”.

For the compound `CC/C(=C(\c1ccccc1)c1ccc(OCCN(C)C)cc1)c1ccccc1` [tamoxifen], the “level of eEF1A1 (Western blot)” value in [1] (setting [21]) is given as “decreased”. In assay [11], the “level of LC3-II (Western blot)” value was “increased level”. For the same compound, the “cell morphology (autophagy)” value in assay [8] (MCF7, tamoxifen 10 μmol/L for 2 days) is recorded as “occurrence of autophagy”. The “level of CD (Western blot)” value in assay [4] (setting [21]) is on record as “decreased”.
